Reference: patent publication US7550484B2, “Chemokine receptor binding heterocyclic compounds with enhanced efficacy” (Genzyme Corporation, priority 2003, dated 2009)
“And” between values parts separate entries of the source, which are not always exact repeats. Identical values can stand only once. Like-named read-outs stand apart in the source and are kept apart here.

Key:
[1] = tested on: bone marrow stem cells; conditions: administered within hours after coronary ligation, with or without rhG-CSF
Procedure: Adult rats are anesthetized and a thoracotomy is performed. The descending branch of the left coronary artery is ligated and not reperfused. […] Control rats are not treated with the reagents. The animals are monitored at one-week intervals by echocardiography and MRI. The experiment is terminated at 2, 6 to 12 weeks post-surgery. On the day of sacrifice, the hemodynamic functions are analyzed for left ventricle-end diastolic pressure, left ventricle-developed pressure and the rate of rise and fall of left ventricle pressure. The heart is then arrested in diastole and perfused via the abdominal aorta to flush residual blood from the vascular network of the myocardium. This is followed by perfusion of the heart with 10% formalin. Several slices are made through the fixed heart and these are embedded in paraffin and sections. The sections are stained and analyzed by light microscopy to determine the size of the infarct in the treated and control animals. Tissue sections from hearts taken at 2 weeks after surgery are stained with antibodies specific for immature, developing myocyte and blood vessel proteins and analyzed by confocal microscopy. The immunohistochemical analysis involves the identification of transcription factors and surface markers expressed in early stages of myocyte development.

[2] = tested on: WBC counts; conditions: human, in vivo
[3] = tested on: granulocyte macrophage (CFU-GM), erythroid (BFU-E), and multipotential (CFU-GEMM) progenitor cells; conditions: for Absolute Number Progenitors Per ML Blood, BFU-E / Absolute Number Progenitors Per ML Blood, CFU-GEMM / Absolute Number Progenitors Per ML Blood, CFU-GM: 1 hour post administration; for Absolute Progenitors Per ML Blood, BFU-E / Absolute Progenitors Per ML Blood, CFU-GEMM / Absolute Progenitors Per ML Blood, CFU-GM: 5 mg/Kg single s.c.; for Absolute Progenitors Per ML Blood, BFU-E / Absolute Progenitors Per ML Blood, CFU-GEMM / Absolute Progenitors Per ML Blood, CFU-GM / Fold Change Compared to Time 0, progenitors BFU-E / Fold Change Compared to Time 0, progenitors CFU-GEMM / Fold Change Compared to Time 0, progenitors GM: methylcellulose culture
Procedure: Progenitors were stimulated to form colonies in vitro with the combination of 1 U/ml rhu Epo, 50 ng/ml rhu SLF, 5% Vol/Vol pokeweed mitogen mouse spleen cell conditioned medium (PWMSCM), and 0.1 mm hemin. Plates were scored 7 days after incubation.

[4] = tested on: white blood cells, CD34 positive progenitor cells, CFU-GM, BFU-E, CFU-GEMM progenitor cells
Procedure: Five healthy human volunteers having initial white blood cell counts of 4,500-7,500 cells/mm^3 were used in the study. […] Blood samples were obtained via catheter prior to the dose, and at various times up to 24 hours after dosing.
The blood samples were evaluated for total white blood cells, CD34 positive progenitor cells (via FACS analysis) as a percentage of total white blood cells, as well as the absolute numbers per mL and cycling status of granulocyte macrophage (CFU-GM), erythroid (BFU-E), and multipotential (CFU-GEMM) progenitor cells.
All progenitor cell results are based on the scoring of 3 culture plates per assay per point.
For the progenitor cell numbers and cycling status, the numbers of CFU-GM, BFU-E and CFU-GEMM in methylcellulose cultures by stimulation of the cells with 1 Unit (U)/ml recombinant human (rhu) erythropoietin, 100 U/ml rhu granulocyte-macrophage colony stimulating factor (GM-CSF), 100 U/ml rhu interleukin-3 (IL-3) and 50 ng/ml rhu steel factor (SLF=stem cell factor (SCF)). The CFU-GM were also evaluated in agar cultures stimulated with 100 U/ml rhu GM-CSF and 50 ng/ml rhu SLF. For both types of assays, colonies were scored after 14 day incubation in a humidified atmosphere with 5% CO2 and lowered (5%) O2 tension. Cell cycling status of progenitors was measured using a high specific activity tritiated thymidine kill technique as previously described (Broxmeyer, H. E., et al., Exp. Hematol. (1989) 17:455-459).

[5] = tested on: WBC count and circulating CD34+ progenitor/stem cells; conditions: single dose of 80 μg/kg, cited from earlier work
[6] = tested on: progenitor cells; conditions: AMD3100 5 mg/Kg s.c. + MIP-1α 5 μg I.V., 11 hours after rhu G-CSF or saline, 1 hour before blood
Procedure: Groups of mice were randomized to receive control diluent (saline) or G-CSF at a dose of 2.5 μg per mouse, twice a day, for two days via s.c. injection. […] One hour later, the mice were sacrificed and the number of progenitor cells per mL of blood were measured.

[7] = tested on: white blood cell count
Procedure: Eleven human patients having initial white blood cell counts of 4,000-6,500 cells/mm^3 were used in the study. […] Aliquots from this stock solution were added to 50-ml bags of 0.9% saline for intravenous injection in amounts to achieve the desired dosage levels (10 μg/kg-80 μg/kg).
The subjects described in this Example already contained an indwelling peripheral intravenous catheter. […] Blood samples were obtained prior to the dose, and at various times up to 24 hours after dose administration.
Three patients were administered dosages of 10 μg/kg (open circles); 3 patients were administered dosages of 20 μg/kg (solid circles); 3 patients were administered 40 μg/kg (open triangles); and 2 patients were administered 80 μg/kg (closed triangles).

[8] = T = 1 hours after injection, average of 5 donors

c1cc(CN2CCCNCCNCCCNCC2)ccc1CN1CCCNCCNCCCNCC1 [AMD3100, 1,1′-[1,4-phenylenebis(methylene)]-bis-1,4,8,11-tetra-azacyclotetradecane]
Expected effect after induction of cardiac ischemia [1]: mobilizes bone marrow stem cells rapidly
Time until WBC counts returned to baseline after discontinuation of the infusion [2]: 7 days
Absolute Number Progenitors Per ML Blood, BFU-E ([3]; 1 mg/kg single s.c.): 62 Per ML Blood
Absolute Number Progenitors Per ML Blood, CFU-GEMM ([3]; 1 mg/kg single s.c.): 27.1 Per ML Blood
Absolute Number Progenitors Per ML Blood, CFU-GM ([3]; 1 mg/kg single s.c.): 424 Per ML Blood
Absolute Number Progenitors Per ML Blood, BFU-E ([3]; 2.5 mg/kg single s.c.): 98.9 Per ML Blood
Absolute Number Progenitors Per ML Blood, CFU-GEMM ([3]; 2.5 mg/kg single s.c.): 70.6 Per ML Blood
Absolute Number Progenitors Per ML Blood, CFU-GM ([3]; 2.5 mg/kg single s.c.): 687.6 Per ML Blood
Absolute Progenitors Per ML Blood, BFU-E ([3]; 15″): 134.5 Per ML Blood
Absolute Progenitors Per ML Blood, CFU-GEMM ([3]; 15″): 90.4 Per ML Blood
Absolute Progenitors Per ML Blood, CFU-GM ([3]; 15″): 791.6 Per ML Blood
Absolute Progenitors Per ML Blood, BFU-E ([3]; 30″): 209.3 Per ML Blood
Absolute Progenitors Per ML Blood, CFU-GEMM ([3]; 30″): 113.5 Per ML Blood
Absolute Progenitors Per ML Blood, CFU-GM ([3]; 30″): 1805.5 Per ML Blood
Absolute Progenitors Per ML Blood, BFU-E ([3]; 120″): 102.3 Per ML Blood
Absolute Progenitors Per ML Blood, CFU-GEMM ([3]; 120″): 47.6 Per ML Blood
Absolute Progenitors Per ML Blood, CFU-GM ([3]; 120″): 828.7 Per ML Blood
Absolute Number Progenitors Per ML Blood, BFU-E ([3]; 5 mg/kg single s.c.): 92.8 Per ML Blood
Absolute Number Progenitors Per ML Blood, CFU-GEMM ([3]; 5 mg/kg single s.c.): 69.5 Per ML Blood
Absolute Number Progenitors Per ML Blood, CFU-GM ([3]; 5 mg/kg single s.c.): 608.4 Per ML Blood
Absolute Number Progenitors Per ML Blood, BFU-E ([3]; 10 mg/kg single s.c.): 120.5 Per ML Blood
Absolute Number Progenitors Per ML Blood, CFU-GEMM ([3]; 10 mg/kg single s.c.): 79.8 Per ML Blood
Absolute Number Progenitors Per ML Blood, CFU-GM ([3]; 10 mg/kg single s.c.): 825.6 Per ML Blood
Fold Change Compared to Time 0, progenitors BFU-E ([3]; Time 2′): 2.07 fold
Fold Change Compared to Time 0, progenitors CFU-GEMM ([3]; Time 2′): 1.85 fold
Fold Change Compared to Time 0, progenitors GM ([3]; Time 2′): 2.86 fold
Fold Change Compared to Time 0, progenitors BFU-E ([3]; Time 15″): 2.72 fold
Fold Change Compared to Time 0, progenitors CFU-GEMM ([3]; Time 15″): 3.51 fold
Fold Change Compared to Time 0, progenitors GM ([3]; Time 15″): 2.73 fold
Fold Change Compared to Time 0, progenitors BFU-E ([3]; Time 30″): 4.24 fold
Fold Change Compared to Time 0, progenitors CFU-GEMM ([3]; Time 30″): 4.41 fold
Fold Change Compared to Time 0, progenitors GM ([3]; Time 30″): 6.23 fold
Time of maximal elevation of white blood cell count and CD34 positive progenitor cells post-administration ([4]; 80 μg/kg single s.c.): 6 h
Mobilization of white blood cells in individual volunteers ([4]; 80 μg/kg single s.c., 2 Hr, volunteers P1-P5): 12.4 ×10^3 WBC's and 21.4 ×10^3 WBC's and 13.5 ×10^3 WBC's
% CHG, CFU-GEMM, methylcellulose culture ([4]; T = 1, average of 5 donors): 131.8%
% CHG, CFU-GM, agar culture ([4]; T = 1, average of 5 donors): 180.8%
% CHG, CFU-GM, methylcellulose culture ([4]; T = 1, average of 5 donors): 376.7%
Fold change, BFU-E, methylcellulose culture, MEAN ([4]; T = 1, average of 5 donors): 1.99 fold
Fold change, CFU-GEMM, methylcellulose culture, MEAN ([4]; T = 1, average of 5 donors): 2.32 fold
Fold change, CFU-GM, agar culture, MEAN ([4]; T = 1, average of 5 donors): 2.81 fold
Fold change, CFU-GM, methylcellulose culture, MEAN ([4]; T = 1, average of 5 donors): 4.77 fold
% CHG, BFU-E, methylcellulose culture ([4]; T = 3, average of 5 donors): 221.3%
% CHG, CFU-GEMM, methylcellulose culture ([4]; T = 3, average of 5 donors): 332.5%
% CHG, CFU-GM, agar culture ([4]; T = 3, average of 5 donors): 754.1%
% CHG, CFU-GM, methylcellulose culture ([4]; T = 3, average of 5 donors): 1266.5%
% CHG, nucleated cellularity PBL-LD ([4]; T = 3, average of 5 donors): 185.6%
% CHG, nucleated cellularity PBL-US ([4]; T = 3, average of 5 donors): 180.2%
Fold change compared to TIME = 0, nucleated cellularity PBL-LD, MEAN ([4]; T = 3, average of 5 donors): 2.86 fold
Fold change compared to TIME = 0, nucleated cellularity PBL-US, MEAN ([4]; T = 3, average of 5 donors): 2.80 fold
Fold change, BFU-E, methylcellulose culture, MEAN ([4]; T = 3, average of 5 donors): 3.21 fold
Fold change, CFU-GEMM, methylcellulose culture, MEAN ([4]; T = 3, average of 5 donors): 4.33 fold
Fold change, CFU-GM, agar culture, MEAN ([4]; T = 3, average of 5 donors): 8.54 fold
Fold change, CFU-GM, methylcellulose culture, MEAN ([4]; T = 3, average of 5 donors): 13.66 fold
% CHG, BFU-E, methylcellulose culture ([4]; T = 6, average of 5 donors): 500.5%
% CHG, CFU-GEMM, methylcellulose culture ([4]; T = 6, average of 5 donors): 907.2%
% CHG, CFU-GM, agar culture ([4]; T = 6, average of 5 donors): 1692.8%
% CHG, CFU-GM, methylcellulose culture ([4]; T = 6, average of 5 donors): 2070.6%
% CHG, nucleated cellularity PBL-LD ([4]; T = 6, average of 5 donors): 266.3%
% CHG, nucleated cellularity PBL-US ([4]; T = 6, average of 5 donors): 225.8%
Fold change compared to TIME = 0, nucleated cellularity PBL-LD, MEAN ([4]; T = 6, average of 5 donors): 3.66 fold
Fold change compared to TIME = 0, nucleated cellularity PBL-US, MEAN ([4]; T = 6, average of 5 donors): 3.26 fold
Fold change, BFU-E, methylcellulose culture, MEAN ([4]; T = 6, average of 5 donors): 6.01 fold
Fold change, CFU-GEMM, methylcellulose culture, MEAN ([4]; T = 6, average of 5 donors): 10.07 fold
Fold change, CFU-GM, agar culture, MEAN ([4]; T = 6, average of 5 donors): 17.93 fold
Fold change, CFU-GM, methylcellulose culture, MEAN ([4]; T = 6, average of 5 donors): 21.71 fold
% CHG, BFU-E, methylcellulose culture ([4]; T = 9, average of 5 donors): 334.4%
% CHG, CFU-GEMM, methylcellulose culture ([4]; T = 9, average of 5 donors): 425.4%
% CHG, CFU-GM, methylcellulose culture ([4]; T = 9, average of 5 donors): 947.3%
% CHG, nucleated cellularity PBL-LD ([4]; T = 9, average of 5 donors): 264.3%
% CHG, nucleated cellularity PBL-US ([4]; T = 9, average of 5 donors): 209.4%
Fold change compared to TIME = 0, nucleated cellularity PBL-LD, MEAN ([4]; T = 9, average of 5 donors): 3.64 fold
Fold change compared to TIME = 0, nucleated cellularity PBL-US, MEAN ([4]; T = 9, average of 5 donors): 3.09 fold
Fold change, BFU-E, methylcellulose culture, MEAN ([4]; T = 9, average of 5 donors): 4.34 fold
Fold change, CFU-GEMM, methylcellulose culture, MEAN ([4]; T = 9, average of 5 donors): 5.25 fold
Fold change, CFU-GM, methylcellulose culture, MEAN ([4]; T = 9, average of 5 donors): 10.47 fold
% CHG, CFU-GM, agar culture ([4]; T = 9, average of donors): 924.9%
Fold change, CFU-GM, agar culture, MEAN ([4]; T = 9, average of donors): 10.25 fold
% CHG, BFU-E, methylcellulose culture ([4]; T = 24, average of 5 donors): 26.3%
% CHG, CFU-GEMM, methylcellulose culture ([4]; T = 24, average of 5 donors): 53.2%
% CHG, CFU-GM, methylcellulose culture ([4]; T = 24, average of 5 donors): 55.5%
% CHG, nucleated cellularity PBL-US ([4]; T = 24, average of 5 donors): 7.0%
Fold change compared to TIME = 0, nucleated cellularity PBL-LD, MEAN ([4]; T = 24, average of 5 donors): 1.05 fold
Fold change compared to TIME = 0, nucleated cellularity PBL-US, MEAN ([4]; T = 24, average of 5 donors): 1.07 fold
Fold change, BFU-E, methylcellulose culture, MEAN ([4]; T = 24, average of 5 donors): 1.26 fold
Fold change, CFU-GEMM, methylcellulose culture, MEAN ([4]; T = 24, average of 5 donors): 1.53 fold
Fold change, CFU-GM, methylcellulose culture, MEAN ([4]; T = 24, average of 5 donors): 1.56 fold
% CHG, CFU-GM, agar culture ([4]; T = 24, average of donors): 108.3%
Fold change, CFU-GM, agar culture, MEAN ([4]; T = 24, average of donors): 2.08 fold
% CHG, nucleated cellularity PBL-LD [4, 8]: 86.2%
% CHG, nucleated cellularity PBL-US [4, 8]: 68.6%
Fold change compared to TIME = 0, nucleated cellularity PBL-LD, MEAN [4, 8]: 1.86 fold
Fold change compared to TIME = 0, nucleated cellularity PBL-US, MEAN [4, 8]: 1.69 fold
Time of maximal fold increases in circulating levels of progenitor cells after injection ([4]; all five donors): 6 h
Peak increase in circulating CD34+ progenitor/stem cells ([5]; 6 hour time point): 6 fold
WBC count [5]: 17,000 /μl
Mobilization of progenitor cells in combination with mu MIP-1α [6]: additive to greater than additive
Change of white blood cell count ([7]; all patients, 10-80 μg/kg intravenous, succeeding 5-10 hours after administration): marked increase in white blood cell count
Peak white blood cell count ([7]; one patient, 80 μg/kg intravenous, from 6,000 cells/mm^3): 19,000 cells/mm^3
White blood cell count after increase ([7]; patient showing the least response, 20 μg/kg intravenous, from about 6,300 cells/mm^3): about 9,000 cells/mm^3
